Legend:
[1] = test system: Salmonella typhimurium TA98, TA100, TA1535 and TA1537; assay: Bacterial mutation test, Salmonella typhimurium; assay type: cell-based; conditions: up to 5000 μg/plate, absence and presence of S-9
Procedure: These conditions included treatments at concentrations up to 5000 μg/plate (the maximum recommended concentration according to current regulatory guidelines), in the absence and in the presence of a rat liver metabolic activation system (S-9).

[2] = test system: patients with treatment-resistant major depressive disorder (TRD); assay: Phase 1/2 clinical trial of inhaled 5-MeO-DMT in TRD; conditions: for Patients with at least one ADR: Part A
Procedure: Patients were assigned to different groups. In the context of the present invention, the group who received a single, 12 mg dose and the group who underwent an intra-day individualized dosing regimen (IDR) that allowed for multiple, escalating doses (6 mg, 12 mg and 18 mg) within a single day, driven by the intensity of the patient-reported psychedelic experience are of interest.
The data gathered include the assessment of the treated patients against several scales including the Montgomery Åsberg Depression Rating Scale (MADRS) and the Brief Psychiatric Rating Scale (BPRS).
This trial was designed in two parts. Part A was an open-label, single-arm, single-dose Phase 1 trial with two dose levels (12 mg (n=4) and 18 mg (n=4)). […] The primary endpoint of Part B was to assess the effects on the severity of depression, as assessed by the proportion of patients in remission on day seven after dosing, defined as a MADRS total score of less than or equal to 10.

[3] = 12 mg n=4, 2 hours, baseline 16

In the case of `COc1ccc2[nH]cc(CCN(C)C)c2c1` [5-MeO-DMT], the Induction of mutation [1] is reported as “did not induce mutation”, the “MADRS Concentration Difficulties improvement” value ([2]; 12 mg n=4, 2 hours) is reported as 9 points and the “MADRS Inability to Feel improvement” value ([2]; 12 mg n=4, 2 hours) is reported as 7 points. The “MADRS Inner Tension improvement” value ([2]; 12 mg n=4, 2 hours) was 11 points, the “MADRS Lassitude improvement” value ([2]; 12 mg n=4, 2 hours) was 6 points and the “MADRS Pessimistic Thoughts improvement” value ([2]; 12 mg n=4, 2 hours) was 8 points. The “MADRS Pessimistic Thoughts percentage improvement” value ([2]; 12 mg n=4, 2 hours) was 50.00%, the “MADRS Suicidal Thoughts improvement” value ([2]; 12 mg n=4, 2 hours) was 5 points and the “MADRS Suicidal Thoughts aggregated score” value ([2]; 12 mg n=4, 2 hours, baseline 8) was 3. The “MADRS Inner Tension aggregated score” value ([2]; 12 mg n=4, 2 hours, baseline 13) was 2, the “MADRS Concentration Difficulties aggregated score” value [2, 3] was 7 and the “MADRS Inability to Feel aggregated score” value [2, 3] was 9. The “MADRS Lassitude aggregated score” value [2, 3] was 10, the “MADRS Pessimistic Thoughts aggregated score” value [2, 3] was 8 and the “BPRS Anxiety improvement” value ([2]; 12 mg n=4, 3 hours) was 14 points. For the same molecule, the “BPRS Anxiety percentage improvement” value ([2]; 12 mg n=4, 3 hours) was 56.00%, the “BPRS Blunted Affect improvement” value ([2]; 12 mg n=4, 3 hours) was 3 points and the “BPRS Emotional Withdrawal improvement” value ([2]; 12 mg n=4, 3 hours) was 2 points. For the same molecule, the “BPRS Guilt Feelings improvement” value ([2]; 12 mg n=4, 3 hours) was 9 points, the “BPRS Guilt Feelings percentage improvement” value ([2]; 12 mg n=4, 3 hours) was 50.00% and the “BPRS Tension improvement” value ([2]; 12 mg n=4, 3 hours) was 5 points. The “BPRS Blunted Affect aggregated score” value ([2]; 12 mg n=4, 3 hours, baseline 11) was 8, the “BPRS Emotional Withdrawal aggregated score” value ([2]; 12 mg n=4, 3 hours, baseline 13) was 11 and the “BPRS Tension aggregated score” value ([2]; 12 mg n=4, 3 hours, baseline 14) was 9. For the same molecule, the “BPRS Guilt Feelings aggregated score” value ([2]; 12 mg n=4, 3 hours, baseline 18) was 9, the “BPRS Anxiety aggregated score” value ([2]; 12 mg n=4, 3 hours, baseline 25) was 11 and the Patients maintaining remission ([2]; Day 7) was 7/8. The “MADRS Concentration Difficulties improvement” value ([2]; IDR n=8, 2 hours) was 19 points, the “MADRS Inability to Feel improvement” value ([2]; IDR n=8, 2 hours) was 24 points and the “MADRS Inner Tension improvement” value ([2]; IDR n=8, 2 hours) was 15 points. For the same molecule, the “MADRS Lassitude improvement” value ([2]; IDR n=8, 2 hours) was 17 points, the “MADRS Pessimistic Thoughts improvement” value ([2]; IDR n=8, 2 hours) was 21 points and the “MADRS Pessimistic Thoughts percentage improvement” value ([2]; IDR n=8, 2 hours) was 75.00%. For the same molecule, the “MADRS Suicidal Thoughts improvement” value ([2]; IDR n=8, 2 hours) was 8 points, the “MADRS Suicidal Thoughts aggregated score” value ([2]; IDR n=8, 2 hours, baseline 11) was 3 and the “MADRS Inner Tension aggregated score” value ([2]; IDR n=8, 2 hours, baseline 26) was 11. The “MADRS Lassitude aggregated score” value ([2]; IDR n=8, 2 hours, baseline 27) was 10, the “MADRS Pessimistic Thoughts aggregated score” value ([2]; IDR n=8, 2 hours, baseline 28) was 7 and the “MADRS Concentration Difficulties aggregated score” value ([2]; IDR n=8, 2 hours, baseline 30) was 11. The “MADRS Inability to Feel aggregated score” value ([2]; IDR n=8, 2 hours, baseline 36) was 12, the “BPRS Anxiety improvement” value ([2]; IDR n=8, 3 hours) was 18 points and the “BPRS Blunted Affect improvement” value ([2]; IDR n=8, 3 hours) was 4 points. The “BPRS Emotional Withdrawal improvement” value ([2]; IDR n=8, 3 hours) was 5 points, the “BPRS Guilt Feelings improvement” value ([2]; IDR n=8, 3 hours) was 20 points and the “BPRS Tension improvement” value ([2]; IDR n=8, 3 hours) was 5 points. For the same molecule, the “BPRS Emotional Withdrawal aggregated score” value ([2]; IDR n=8, 3 hours, baseline 13) was 8, the “BPRS Blunted Affect aggregated score” value ([2]; IDR n=8, 3 hours, baseline 15) was 11 and the “BPRS Tension aggregated score” value ([2]; IDR n=8, 3 hours, baseline 16) was 11. For the same molecule, the “BPRS Guilt Feelings aggregated score” value ([2]; IDR n=8, 3 hours, baseline 34) was 14, the “BPRS Anxiety aggregated score” value ([2]; IDR n=8, 3 hours, baseline 37) was 19 and the “Safety laboratory analyses, vital signs, psychiatric safety assessments, cognitive function” value ([2]; Part A and Part B) was “No clinically significant changes”. For the same molecule, the “Patients with at least one ADR” value ([2]; 12 mg) was 3 of 4, the “Patients with at least one ADR” value ([2]; 18 mg) was 3 of 4 and the “Patients with MADRS remission” value ([2]; Part B, IDR n=8, day seven) was 87.5%. The “Mean MADRS change from baseline, percent” value ([2]; Part B, IDR, day seven) was 76%, the Patients achieving remission ([2]; day 1) was 8/8 and the Patients achieving remission ([2]; within 2 h after dosing) was 5/8.

Reference: patent US20250221963A1 (GH RESEARCH IRELAND LIMITED, priority 2022, published 2025)
